We go through 136 compounds from a melting point compilation (Tetko et al.).

For the series the following is noted: a range is the spread between reports.

Structures are written as SMILES.

Usually melting point stands for the temperature, or range, at which the solid turns liquid.

With `CC(C)(C)c1ccc(O)c(C(C)(C)C)c1`, the melting point lay within 54.5 to 56.5 °C.

On to `O=C(CBr)c1ccccc1`, for which the melting point fell in the range of 49 to 50.5 °C. `O=C(/C=C1\Cc2ccccc21)c1ccccc1` registered a melting point of 50 to 55 °C. In the case of `O=C1CCCCCCCCC1` it was 24 to 28 °C; in that of `C=CCCC(=O)O`, -22.5 to -22 °C; in that of `Oc1ccc2cc(O)ccc2c1`, 220 to 224 °C. Next, `O=[N+]([O-])c1ccc(Br)cc1`: 126 to 127 °C.

In the case of `O=[N+]([O-])c1cccc2cnccc12`, the melting point fell in the range of 108 to 110 °C. Consider `O=C(O)Cc1ccc(F)cc1`, for which the melting point lay within 83 to 86 °C. Next, `COc1ccccc1CC#N`: 66 to 69.8 °C. In the case of `COC(=O)c1c(Cl)c(Cl)c(C(=O)OC)c(Cl)c1Cl` it was 155 to 157 °C; in that of `O=[N+]([O-])c1cc(Cl)c(Cl)c(Cl)c1`, 70 to 72.5 °C; in that of `COc1cc(Cl)cc(OC)c1`, 34 to 35 °C. In the case of `N#Cc1ccccc1N` it was 47 to 51 °C; in that of `C=CC=O`, -87.7 to -87 °C; in that of `CCc1cccc(C)c1`, -96 to -95.5 °C. Consider `CC12CCC(CC1)C(C)(C)O2`, for which the melting point fell in the range of 1 to 1.5 °C. Next, `C=CCCCCCCCCC(=O)O`: 24 to 24.5 °C. The compound `CC(=O)c1ccccc1C(=O)O` registered a melting point of 114 to 117 °C. For `Brc1ccc2c(c1)Cc1ccccc1-2`, the melting point lay within 112 to 114 °C. In the case of `NC(=O)c1ccccc1F`, the melting point was in the range of 116 to 118 °C.

`NNC(=O)c1ccco1`: the melting point lay within 79 to 80 °C. In the case of `Cc1csc(N)n1` it was 44 to 45.5 °C; in that of `FC(F)(F)c1ccccc1`, -29.1 to -27 °C. Next, `O=C(O)CCBr`: 60 to 62.5 °C; `CN(C)c1ccc(C(=O)O)cc1`: 242 to 243 °C. In turn, `O=[N+]([O-])c1cccc(CCl)c1` came in with a melting point of 45 to 47 °C.

`O=Cc1cc2c(cc1[N+](=O)[O-])OCO2` came in with a melting point of 93.5 to 95 °C.

With `O=C(Cl)c1ccc2ccccc2c1`, the melting point is 50 to 51 °C. Next, `CCCC(C)(C)CC`: -126 °C.

With `COC(=O)CCCCCCCCCCC(=O)OC`, the melting point is 30 to 31.9 °C. Compound `O=[N+]([O-])c1cccc(CBr)c1` gave a melting point of 58 to 59.3 °C. In the case of `CC/C=C/C(C)C` it was -142 °C. In the case of `Clc1ccccc1C(Cl)(Cl)Cl` it was 29 to 30 °C. In the case of `CC(C)=CC(=O)O` it was 67 to 69.5 °C; in that of `O=c1cc(-c2ccccc2)oc2c1ccc1ccccc12`, 153 to 158 °C. `C1=CCC=CC1` registered a melting point of -49.2 to -49 °C. As to `O=Cc1ccc(O)cc1O`, the melting point lay within 135 to 136 °C. Next, `N#CCC(=O)O`: 66 to 67 °C; `O=C1OC(=O)c2cc(Cl)c(Cl)cc21`: 186 to 188 °C; `Cc1ccccc1CBr`: 19 to 21 °C. Compound `O=C(O)COc1ccccc1` came in with a melting point of 98.5 to 100 °C. In the case of `CCCCC(C)CCC` (stereo unspecified) it was -113 °C; in that of `O=[N+]([O-])c1ccc(Cl)c([N+](=O)[O-])c1`, 50 to 53 °C.

Turning to `CC(=O)Nc1cccc(Cl)c1`, the melting point lay within 77 to 80 °C. In the case of `CC(CCC(=O)O)CC(=O)O` (stereo unspecified) it was 100 to 101 °C; in that of `Nc1cccc(C(=O)O)c1`, 173 to 175 °C; in that of `Cc1cc(O)cc(O)c1`, 107 to 108 °C. Consider `O=C(O)[C@@H]1CCCN1C(=O)OCc1ccccc1`, for which the melting point lay within 76 to 77 °C. Regarding `Brc1ccc(I)cc1`, the melting point was 91 to 92 °C. Take `COc1ccc2c3c1O[C@H]1[C@@H](O)C=C[C@H]4[C@@H](C2)N(C)CC[C@@]341`: the melting point was 155 to 158 °C. Next, `O=c1c(O)c(-c2ccccc2)oc2ccccc12`: 170 to 172 °C. In the case of `CCCCCCCCCCC1CCCCC1` it was -2 to -1.7 °C; in that of `O=S1(=O)CCCC1`, 27 to 27.6 °C; in that of `ClC(Cl)C(Cl)Cl`, -44 to -43 °C. Next, `N#CCc1ccc(I)cc1`: 48 to 53 °C; `ClCCCCCCl`: -73 to -72 °C. `CCc1cccc(-c2ccccc2)c1` returned a melting point of -28 to -27.5 °C. `N#Cc1c(Cl)cccc1Cl` yielded a melting point of 143 to 145 °C. The compound `NC(=O)c1ccc([N+](=O)[O-])cc1Cl` had a melting point of 170 to 172 °C. In the case of `C1CO1` it was -112 to -111 °C. Next, `COc1ccc(Br)cc1`: 10 to 13.5 °C; `C=CCC(C)(C)C`: -137 °C; `CCCCCCCCCCCCCCCCCC(=O)OC[C@@H](O)[C@H]1OC[C@H](O)[C@H]1O`: 55 to 57 °C. In the case of `Nc1nc(Cl)cc(Cl)n1` it was 220 °C. In turn, `O=c1[nH]c2ccccc2o1` came in with a melting point of 138 to 140 °C. Next, `O=C(NCc1ccccc1)c1ccccc1`: 105 to 106 °C; `C[Si]1(C)N[Si](C)(C)N[Si](C)(C)N[Si](C)(C)N1`: 96 to 97.5 °C.

Consider `Cc1ccccc1-c1ccccc1C`, for which the melting point lay within 18 to 19.5 °C. In the case of `COC(=O)C(Cl)Cl` it was -52 to -51.9 °C; in that of `CCOC(=O)CCl`, -26 to -21 °C; in that of `O=C(O)C(F)(F)Cl`, 22 to 25 °C.

`O=C(Cl)C(c1ccccc1)c1ccccc1`: the melting point fell in the range of 53 to 56.5 °C. As for `CCCCCCCCS`, the melting point is -49.2 to -49 °C. In the case of `CCCCCCCCCCCCCC(C)=O` it was 39 to 39.5 °C. In the case of `O=Cc1cc(Cl)ccc1Cl`, the melting point lay within 56 to 58 °C. `FC(F)(F)c1ccccc1Cl`: the melting point is -7.4 to -6 °C. `C/C=C\CC` displayed a melting point of -151 °C.

The compound `Cc1ccc(C(=O)Cl)cc1` gave a melting point of -3 to -2 °C.

The compound `c1ccc2c(c1)Oc1ccccc1O2` registered a melting point of 122 °C. In the case of `Cc1cccc(-c2cccc(C)c2)c1` it was 7 to 9 °C; in that of `O=c1ccc2ccccc2o1`, 70 to 71 °C; in that of `CS(=O)c1ccccc1` (stereo unspecified), 29 to 32 °C. In the case of `O/N=C(\c1ccccc1)C(O)c1ccccc1` (stereo unspecified) it was 151 to 154 °C; in that of `O=[N+]([O-])c1ccccc1O`, 44 to 46 °C. For `Cc1ccc(-c2cc(C(F)(F)F)nn2-c2ccc(S(N)(=O)=O)cc2)cc1`, the melting point came out at 158 °C. As to `CCC1(O)CC2CN(CCc3c([nH]c4ccccc34)C(C(=O)OC)(c3cc4c(cc3OC)N(C=O)C3C(O)(C(=O)OC)C(OC(C)=O)C5(CC)C=CCN6CCC43C65)C2)C1` (stereo unspecified), the melting point was found to be 219 °C. Regarding `CCN1CCNC(=O)C1=O`, the melting point lay in the range of 108 to 110 °C.

Turning to `c1cc[nH]c1`, the melting point is -23.4 °C.

`Cc1cccc(C(=O)O)c1O` registered a melting point of 165 to 166 °C. Next, `COc1cc(CO)ccc1O`: 114 to 115 °C; `C/C=C/CC(C)C`: -124 °C. For the compound `CCC1=CCCCC1`, the melting point is -110 °C. With `OCc1ccc(CO)cc1`, the melting point was 118 to 119 °C. Next, `O=C1CN(N=Cc2ccc([N+](=O)[O-])o2)C(=O)N1`: 263 to 268 °C; `Cc1c(C(=O)O)cc([N+](=O)[O-])cc1[N+](=O)[O-]`: 205 to 206 °C; `O=C(O)[C@H](O)[C@@H](O)C(=O)O`: 169 to 171 °C. `COP(=O)(OC)OC(=CCl)c1cc(Cl)c(Cl)cc1Cl` gave a melting point of 96 to 97.5 °C. `CC(C)(C)I` displayed a melting point of -38.2 to -38 °C.

Consider `CI`, for which the melting point is -67 to -64 °C. In turn, `O=C(C(F)(F)F)C(F)(F)F` came in with a melting point of -129 to -125 °C. As to `Cc1nnc(S)s1`, the melting point lay in the range of 184 to 187 °C. The compound `COCc1ccccc1` gave a melting point of -53 to -52 °C. In the case of `COc1cc(C(=O)O)cc(OC)c1O` it was 205 to 208 °C. In the case of `COC(=O)c1ccc(C#N)cc1`, the melting point was in the range of 62 to 67 °C. As to `BrCCCCCCBr`, the melting point is -2.3 to 2 °C. `CN(C)c1ccc(C=O)cc1` showed a melting point of 74 to 75 °C. In the case of `c1ccc2c(c1)OCCOCCOc1ccccc1OCCOCCO2` it was 162 to 163 °C; in that of `CC(=O)CC(=O)OC(C)C`, -27.3 to -27 °C. Next, `c1ccc(-c2nnc(-c3ccccc3)o2)cc1`: 139 to 140 °C; `O=[N+]([O-])c1ccc(Nc2ccccc2)c([N+](=O)[O-])c1`: 159 to 160 °C. As to `c1cncnc1`, the melting point was in the range of 21 to 22 °C. In turn, `OCCCO` displayed a melting point of -27 to -26 °C. Turning to `Cc1cc(O)cc(C)c1Cl`, the melting point lay in the range of 114 to 115 °C. In turn, `O=C1C(Br)=CC(=NCl)C=C1Br` came in with a melting point of 80 to 83 °C. In turn, `O=C1CCCC(=O)C1` yielded a melting point of 103 to 106 °C. Next, `Cc1ccc(NC(=O)c2ccccc2)cc1`: 156 to 158 °C. Compound `Nc1ccccc1C=O` showed a melting point of 38 to 39 °C. Next, `O=C(O)CCCCCCCCCCCCCCCO`: 98 to 99 °C. In the case of `c1c[nH]nn1` it was 23 to 24 °C; in that of `O=C(CCl)c1ccc(Cl)cc1`, 101 to 102 °C. `c1ccc(-c2ccncc2)nc1` came in with a melting point of 61 to 61.5 °C. In the case of `CC(=O)NO` it was 88 to 90.5 °C; in that of `CC(=O)c1ccc(Br)s1`, 94.5 to 95 °C. On to `CCCCC(C)=O`, for which the melting point is -57 to -55.5 °C. In the case of `CCSSCC` it was -102 °C; in that of `O=C1c2ccccc2-c2cccc3cccc1c23`, 170 to 173 °C. Next, `O=C(O)COc1ccccc1C(=O)O`: 189 to 191 °C; `CC(C)(C)C(=O)O`: 33 to 36 °C.

`CCOc1ccccc1OCC` gave a melting point of 43 to 44 °C. Next, `CCCCC1CCCCC1`: -78 to -74.7 °C; `CC(C)(C)OC(=O)CCC(Cl)(Cl)Cl`: 20 °C.

For `O=C(O)CC(O)(CC(=O)O)C(=O)O`, the melting point fell in the range of 153 to 154 °C.

`COc1c(F)c(F)c(F)c(F)c1F` registered a melting point of -38 to -37 °C. On to `Oc1ccnc2ccccc12`, for which the melting point lay in the range of 201 to 203 °C.

In the case of `COC(=O)c1ccc(O)cc1O`, the melting point lay in the range of 118 to 120 °C.
